From patent US20240262844A1, “PYRIDINIUM SALTS AND METHODS OF USE” (UNIVERSITY OF WYOMING, priority 2023, published 2024)
Where a name gives a salt, the structure may show the parent alone.

Target: T1, bovine carbonic anhydrase II (29 kDa) (Bos taurus, UniProt P00921)
T1 construct: Carbonic Anhydrase Isozyme II from bovine erythrocytes; purchased Sigma Aldrich; host or cells: bovine erythrocytes
Test: Photochemical labeling of bovine carbonic anhydrase II (LC/MS, MS-MS)
Type: biochemical
Procedure: General Procedure B: Photochemical Irradiation of Peptides and Proteins: To a 2 mL Pyrex LC/MS vial (Thermo model #03-391-39) were sequentially added solutions containing the desired biomolecule, glutathione (GSH), pyridinium salt, and ammonium acetate (NH4OAc). The resulting solution was diluted to a final volume of 500 μL and then sparged using nitrogen for a minimum of 30 minutes prior to irradiation. The actively sparging solution was then placed in an EvoluChem™ PhotoRedOx Box photoreactor that was equipped with a Kessil, PR160 427 nm LED Lamp and was then irradiated (100% lamp intensity) for the designated time at room temperature while maintaining active sparging. The resultant reaction mixture was then analyzed directly by LC/MS. […]
Labeling of Bovine Carbonic Anhydrase II with Pyridinium Salt 2a (Bovine Carbonic Anhydrase II-2a Conjugate). […] The reaction mixture was directly analyzed by LC/MS using method A and was estimated to have proceeded with 34% conversion and a 4.5:1 mono:di labeled ratio. […]
General Trypsin Digest Protocol B: For non-cystine bridged labeled proteins, a standard trypsin digest was modified as follows. […] The digested mixture was analyzed directly by LC/MS and MS/MS using method C. […] The reduced product was analyzed by LC/MS-MS by selecting m/z=1108.4 for collision-induced dissociation (Collision energy=35 V). […]

T1 sequence (P00921 whole entry): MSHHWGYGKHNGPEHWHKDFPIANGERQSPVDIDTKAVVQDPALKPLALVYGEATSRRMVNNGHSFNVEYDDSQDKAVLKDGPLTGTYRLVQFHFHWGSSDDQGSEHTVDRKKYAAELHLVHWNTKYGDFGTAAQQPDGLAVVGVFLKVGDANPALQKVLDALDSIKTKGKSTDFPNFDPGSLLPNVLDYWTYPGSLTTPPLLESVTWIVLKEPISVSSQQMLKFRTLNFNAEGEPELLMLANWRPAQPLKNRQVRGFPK

**Q.** Which glutathionylation (10 μM carbonic anhydrase II, 200 μM pyridinium salt, 300 μM glutathione, 60 minutes) does the source give for `COC(=O)N(C)[n+]1c(C)cc(-c2ccc3cc(OC)ccc3c2)cc1C` [Pyridinium salt 2a, 1-((methoxycarbonyl)(methyl)amino)-4-(6-methoxynapthalen-2-yl)-2,6-dimethylpyridin-1-ium tetrafluoroborate] here?
**A.** Its glutathionylation is “No glutathionylation was observed”.

**Q.** And the “identifiable site of modification” value (digestion/MS-MS)?
**A.** Its value is “Trp-243”.
